Test results reported in patent publication US20250099431A1, “GLP-1R MODULATING COMPOUNDS” (priority 2020, published 2025).

How the values were obtained:
GLP-1R = GLP-1R (Homo sapiens (Human), UniProt P43220); assay: GLP-1R activation: cAMP increase in CHO cells stably expressing GLP-1R; type: cell-based; conditions: cAMP increase, 10 point dose response, 30 minutes incubation at 37° C., read-out: EC50
Procedure: GLP-1R activation by a compound of the present disclosure was quantified by measuring cAMP increase in CHO cells stably expressing GLP-1R (MultiSpan product #C1267-1a). […] The cells were then incubated overnight at 37° C., 5% CO2. […] 1% BSA (Rockland Immunochemicals product #BSA-1000)). Following the medium change, the cells were incubated for 1 hour at 37° C., 5% CO2. The tested GLP-1 compound was added to the cells in a 10 point dose response followed by a 30 minutes incubation at 37° C., 5% CO2. cAMP concentration increase was then detected using Cisbio's cAMP Gs Dynamic Kit (product #62AM4PEC) according to the manufacturer's protocol. The response was plotted against the log of the agonist concentration and fitted to a sigmoidal equation to determine the EC50.

[1] = Microsomal stability (liver microsomal assay, mixed cofactors); predicted hepatic clearance; type: in vitro ADME; conditions: liver microsomes 1.0 mg protein/mL (+UDPGA +NADPH), 1 μM analyte, 37° C.; scaled with human liver weight and hepatic blood flow 1.3 L/hr/kg
Procedure: Metabolic stability of compounds was assessed using human or rat liver microsomal assays (Corning). In these assays, 10 nL of each analyte at a concentration of 1 mM in 100% DMSO was dispensed into a well of a polypropylene plates using the Echo 550 acoustic liquid dispenser (Labcyte®). Each plate contained 384 wells with a single analyte in each well.
A solution of human (Corning® Gentest™ Human Mixed Pooled Microsomes or rat (Corning® Gentest™ Rat [Sprague-Dawley] Pooled Liver Microsomes) liver microsomes at 2 mg/ml in 100 mM K2HPO4/KH2PO4 at pH 7. 4 was combined with alamethicin from Trichoderma viride (Sigma-Aldrich) 0.0225 mg/ml. The mixture was incubated on ice for 15 minutes. 5 μL of this mixture was added to individual wells following a 15 minute incubation at room temperature and supplemented with 5 μL NADPH Regenerating Solution of cofactors (Corning® Gentest™ UGT Reaction Mix) containing 100 mM K2HPO4/KH2PO4 at pH 7.4, 2.6 mM NADP+, 6.6 mM glucose-6-phosphate, 6.6 mM MgCl2, 0.8 U/mL glucose-6-phosphate dehydrogenase, 0.1 mM sodium citrate, and 6.8 mM uridine diphosphate-glucuronic acid. The final concentration of each analyte compound at the beginning of the reaction was 1 μM. The reactions were incubated at 37° C. and samples were collected at time points of 0, 5, 15, 30, 40, 50, 60, and 70 minutes for further analysis. Background data were collected using reactions without analyte compounds.
Upon collection of the sample time points, samples were quenched with 30 μL of a solution of 72% acetonitrile, 8% methanol, 0.1% formic acid, 19.9% water, and internal standard (IS). Reaction plates were spun in a centrifuge at speed of 4,000 rcf for 30 minutes at 4° C., following a dilution of the 10 μL quenched reaction into 40 μL de-ionized water, yielding assay plates.
Assay plates were analyzed using solid-state extraction coupled with quadrupole time-of-flight mass spectrometer, using Agilent QToF 6530 RapidFire 360 system, with C4 type A solid state cartridges. Analysis was performed in either positive or negative ionization modes. Mobile phases contained 0.1% formic acid in water for loading analytes onto solid state extraction cartridges and 0.1% formic acid in acetonitrile for elution into a mass spectrometer in positive ionization mode, or 0.1% acetic acid in water for loading and 0.1% acetic acid in acetonitrile for extraction in negative ionization mode. Peak-area ratios of integrated counts for individual compounds to IS were plotted as semi-logarithmic chart of log vs time. The initial linear portion of decay was fitted to a linear regression equation to derive the half-time of analyte decay.
Pharmacological parameters for an analyte compound metabolism were calculated using the following equations: […]
wherein concentration refers to the protein concentration (mg/ml) in the reaction.
This scales the in vitro intrinsic clearance up to the value that would be predicted for the entire mass of liver tissue (but with no restriction by blood flow). The value depends upon the size of the liver (species-dependent) and the yield of microsomal protein as appropriate (assumed to be species-independent).
Hepatic clearance will depend upon the inter-relationship of intrinsic clearance and hepatic blood flow and was predicted from in vitro data using a variety of approaches.
The hepatic extraction is reported as the predicted clearance expressed as a proportion of hepatic blood flow.

Sequence of GLP-1R (P43220 24-463): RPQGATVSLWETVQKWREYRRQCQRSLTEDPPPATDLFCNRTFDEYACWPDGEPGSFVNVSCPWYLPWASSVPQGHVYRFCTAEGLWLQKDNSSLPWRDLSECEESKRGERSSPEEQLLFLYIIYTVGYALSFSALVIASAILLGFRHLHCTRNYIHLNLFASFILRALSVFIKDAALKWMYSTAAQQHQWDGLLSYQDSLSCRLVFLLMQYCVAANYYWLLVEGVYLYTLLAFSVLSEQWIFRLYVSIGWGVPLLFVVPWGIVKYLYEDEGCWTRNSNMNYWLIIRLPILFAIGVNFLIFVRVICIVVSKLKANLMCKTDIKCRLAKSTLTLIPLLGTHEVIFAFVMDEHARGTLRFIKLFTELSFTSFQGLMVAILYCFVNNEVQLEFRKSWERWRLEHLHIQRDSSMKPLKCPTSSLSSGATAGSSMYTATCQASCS

| Molecule | EC50 (GLP-1R) [µM] | Predicted Hepatic Clearance (Pred. Cl.) [1] [mL/min/kg] |
| --- | --- | --- |
| CC1(c2ccc(Cl)cc2F)Oc2cccc(-c3cc(F)c(Cc4nc5ccc(C(=O)O)c(F)c5n4C[C@@H]4CCO4)c(F)c3)c2O1 (stereo partly drawn) [Example 2, 2-(4-(2-(4-chloro-2-fluorophenyl)-2-methylbenzo[d][1, 3]dioxol-4-yl)-2,6-difluorobenzyl)-7-fluoro-1-(((S)-oxetan-2-yl)methyl)-1H-benzo[d]imidazole-6-carboxylic acid] | 0.00017 | <1.83 |
| CC1(c2ccc(Cl)cc2F)Oc2cccc(-c3cc(F)c(Cc4nc5c(F)cc(C(=O)O)cc5n4CC4(CC(N)=O)CC4)c(F)c3)c2O1 (stereo not shown) [Example 9, 1-((1-(2-amino-2-oxoethyl)cyclopro-pyl)methyl)-2-(4-(2-(4-chloro-2-fluorophenyl)-2-methylbenzo[d][1, 3]dioxol-4-yl)-2,6-difluorobenzyl)-4-fluoro-1H-benzo[d]imidazole-6-carboxylic acid] | 0.0086 | 2.5 |
| CC1(c2ccc(Cl)cn2)Oc2cccc(-c3cc(F)c(Cc4nc5ccc(C(=O)O)cc5n4C[C@@H]4CCO4)cc3F)c2O1 (single isomer, unassigned) [Example 45] | 0.00019 | 5 |
| CC1(c2ccc(Cl)cn2)Oc2cccc(-c3cc(F)c(Cc4nc5ccc(C(=O)O)cc5n4C[C@@H]4CCO4)c(C#N)c3)c2O1 (stereo partly drawn) [Example 74, 2-(4-(2-(5-chloropyridin-2-yl)-2-methylbenzo[d][1, 3]dioxol-4-yl)-2-cyano-6-fluorobenzyl)-1-(((S)-oxetan-2-yl)methyl)-1H-benzo[d]imidazole-6-carboxylic acid] | 0.0017 | 7.67 |
| CC1(c2ccc(Cl)cc2F)Oc2cccc(-c3cc(F)c(Cc4nc5ccc(C(=O)O)nc5n4CC4(CF)CC4)c(F)c3)c2O1 (stereo not shown) [Example 21, 2-(4-(2-(4-chloro-2-fluorophenyl)-2-methylbenzo[d][1, 3]dioxol-4-yl)-2,6-difluorobenzyl)-3-((1-(fluoromethyl)cyclo-propyl)methyl)-3H-imidazo[4,5-b]pyridine-5-carboxylic acid] | 0.00086 | <1.83 |
| COCCn1c(Cc2c(F)cc(-c3cccc4c3OC(C)(c3ccc(C(N)=O)cn3)O4)cc2F)nc2ccc(C(=O)O)cc21 (stereo not shown) [Example 67, 2-(4-(2-(5-carbamoylpyridin-2-yl)-2-methylbenzo[d][1, 3]dioxol-4-yl)-2,6-difluorobenzyl)-1-(2-methoxyethyl)-1H-benzo[d]imidazole-6-carboxylic acid] | 0.02 | 7.17 |
| COCCn1c(Cc2c(F)cc(-c3cccc4c3OC(C)(c3ccc(Cl)cc3F)O4)cc2F)nc2ccc(C(=O)O)cc21 (stereo not shown) [Example 19, 2-(4-(2-(4-chloro-2-fluorophenyl)-2-methylbenzo[d][1, 3]dioxol-4-yl)-2,6-difluorobenzyl)-1-(2-methoxyethyl)-1H-benzo[d]imidazole-6-carboxylic acid] | 0.00097 | 2.5 |
| COCCn1c(Cc2c(F)cc(-c3cccc4c3OC3(c5ccc(Cl)cc5)CCC(=O)N43)cc2F)nc2ccc(C(=O)O)cc21 (stereo not shown) [Example 17, 2-(4-(3a-(4-chlorophenyl)-1-oxo-1,2,3,3a-tetrahydrobenzo[d]pyrrolo[2,1-b]oxazol-5-yl)-2,6-difluorobenzyl)-1-(2-methoxyethyl)-1H-benzo[d]imidazole-6-carboxylic acid] | 10 | 7.33 |
| COCCn1c(Cc2ccc(-c3cccc4c3OC(C)(c3ccc(Cl)cc3F)O4)cc2F)nc2ccc(C(=O)O)cc21 (stereo not shown) [Example 80, 2-(4-(2-(4-chloro-2-fluorophenyl)-2-methylbenzo[d][1, 3]dioxol-4-yl)-2-fluorobenzyl)-1-(2-methoxyethyl)-1H-benzo[d]imidazole-6-carboxylic acid] | 0.011 | 4 |
| COCCn1c(Cc2c(F)cc(-c3cccc4c3OC(C)(c3ccc(Cl)cc3F)O4)cc2F)nc2ccc(C(=O)NS(=O)(=O)C3CC3)cc21 (racemic) [Example 3, 2-(4-(2-(4-chloro-2-fluorophenyl)-2-methylbenzo[d][1, 3]dioxol-4-yl)-2,6-difluorobenzyl)-N-(cyclopropylsulfonyl)-1-(2-methoxyethyl)-1H-benzo[d]imidazole-6-carboxamide] | 0.078 | 2 |
| COCCn1c(Cc2c(F)cc(-c3cccc4c3OC(C)(c3ccc(Cl)cn3)O4)cc2F)nc2ccc(C(=O)O)cc21 (stereo not shown) [Example 65, 2-(4-(2-(5-chloropyridin-2-yl)-2-methylbenzo[d][1, 3]dioxol-4-yl)-2,6-difluorobenzyl)-1-(2-methoxyethyl)-1H-benzo[d]imidazole-6-carboxylic acid] | 0.01 | 3.3 |
| COCCn1c(Cc2ccc(-c3cccc4c3OC(C)(c3nc5ccccc5n3C)O4)cc2F)nc2ccc(C(=O)O)cc21 (stereo not shown) [Example 52, 2-[[2-fluoro-4-[2-methyl-2-(1-methylbenzimidazol-2-yl)-1,3-benzodioxol-4-yl]phenyl]methyl]-3-(2-methoxyethyl) benzimidazole-5-carboxylic acid] | 2.27 | 17.8 |
| COCCn1c(Cc2cc(F)c(-c3cccc4c3OC(c3ccc(C#N)cc3F)O4)cc2F)nc2ccc(C(=O)O)cc21 (stereo not shown) [Example 31, 2-(4-(2-(4-cyano-2-fluorophenyl)benzo [d][1,3]dioxol-4-yl)-2,5-difluorobenzyl)-1-(2-methoxyethyl)-1H-benzo[d]imidazole-6-carboxylic acid] | 0.089 | 3.17 |
| 2-[[4-[2-(5- Chloro-2-pyridyl)- 2-methyl-1,3- benzodioxol-4- yl]triazol-1- yl]methyl]-3-(2- methoxyethyl) bencarboxylic acid [Example 104] | 3.03 | 13 |
| CC1(c2ccc(Cl)cc2F)Oc2cccc(-c3cc(F)c(Cc4nc5c(F)cc(C(=O)O)cc5n4CC4(CC#N)CC4)c(F)c3)c2O1 (single isomer, unassigned) [Example 106, 2-(4-(2-(4-chloro-2-fluorophenyl)-2-methylbenzo[d][1, 3]dioxol-4-yl)-2,6-difluorobenzyl)-1-((1-(cyanomethyl)cyclopropyl)methyl)-4-fluoro-1H-benzo[d]imidazole-6-carboxylic acid] | 0.00064 | 15.2 |
| CC1(c2ccc(Cl)cc2F)Oc2cccc(-c3cc(F)c(Cc4nc5ccc(C(=O)O)cc5n4C[C@@H]4CCO4)c(C#N)c3)c2O1 (stereo partly drawn) [Example 18, 2-(4-(2-(4-chloro-2-fluorophenyl)-2-methylbenzo[d][1, 3]dioxol-4-yl)-2-cyano-6-fluorobenzyl)-1-(((S)-oxetan-2-yl)methyl)-1H-benzo[d]imidazole-6-carboxylic acid] | 0.00014 | 8 |
| COCCn1c(Cc2c(F)cc(-c3cccc4c3O[C@@](C)(c3ccc(Cl)cc3F)O4)cc2F)nc2ccc(C(=O)O)cc21 [Example 102, 2-(4-(2-(4-chloro-2-fluorophenyl)-2-methylbenzo[d][1, 3]dioxol-4-yl)-2,6-difluorobenzyl)-1-(2-methoxyethyl)-1H-benzo[d]imidazole-6-carboxylic acid] | 0.065 | 3.17 |
